Experimental data from patent publication US20050191344A1, “Liposome composition for delivery of therapeutic agents” (priority 2004, published 2005).

Assays:
[1] = Zeta potential of liposomes as a function of pH; assay type: physicochemical; conditions: FIG. 2
Text: As discussed in Example 5, zeta potential measurements were obtained for the liposomes containing DSPEI and for the liposomes containing HDSG. […] This is likely indicative of a higher pKa and greater charge at physiological pH. […] The greater neutrality of DSPEI-containing liposomes is important for minimization of non-specific interactions with plasma proteins and cells under in vivo conditions and thus prolonged circulation in the blood, which is necessary for systemic drug and gene delivery, as well as delivery of gene modulators, to diseased tissues.
With continuing reference to FIG. 2, zeta potential measurements were also determined for liposomes prepared using dimethyldioctadecylammonium bromide (DDAB) (diamonds). […] Therefore DDAB-containing liposomes retain their cationic charge at physiological pH and are more likely to participate in non-specific interactions with plasma proteins under in vivo conditions. DDAB-containing liposomes are consequently cleared rapidly from circulation and are less suitable for drug or gene delivery to diseased tissues.
Zeta potential was measured using a ZETASIZER 2000 from Malver Instruments, Inc. (Southborough Mass.). […]

[2] = reported values; cited from earlier work

| pKa relative to the other lipids, inferred from zeta potential versus pH slope [1] | SMILES | pKa [2] |
| --- | --- | --- |
| higher than for either HDSG or DSPEI | CCCCCCCCCCCCCCCCCC[N+](C)(C)CCCCCCCCCCCCCCCCCC.[Br-] [DDAB, dimethyldioctadecylammonium bromide, reference compound] |  |
| lower pKa than HDSG | CCCCCCCCCCCCCCCCCC(=O)OCC(COP(=O)(O)OCCNCc1c[nH]cn1)OC(=O)CCCCCCCCCCCCCCCCC (stereo not shown) [DSPEI, distearoylphosphatidylethanolamine imidazole] |  |
|  | NCCc1c[nH]cn1 [histamine] | 6 |
|  | c1c[nH]cn1 [imidazole] | about 6.0 |
